Results on four compounds are retold here after patent US20220289768A1, “HETEROCYCLIC COMPOUNDS AS STING MODULATORS” (BEIGENE, LTD., priority 2019, published 2022).

One test has as its system STING in THP1-Dual Cells. Put plainly: STING cellular assay in THP1-Dual cells (Lucia luciferase IRF reporter). Format: cell-based. The note with it: Homo sapiens, 24 h incubation, QUANTI-Luc readout, 1 nM-10 μM. An excerpt: (§1) STING Cellular Assay in THP1-Dual™ Cells
(§2) THP1-Dual™ cells were derived from the human THP-1 monocyte cell line by stable integration of two inducible reporter constructs. THP1-Dual™ cells feature the Lucia luciferase gene, a new secreted luciferase reporter gene, under the control of an ISG54 (interferon-stimulated gene) minimal promoter in conjunction with five interferon (IFN)-stimulated response elements. THP1-Dual™ cells also express a secreted embryonic alkaline phosphatase (SEAP) reporter gene driven by an IFN-β minimal promoter fused to five copies of the NF-κB consensus transcriptional response element and three copies of the c-Rel binding site. As a result, THP1-Dual™ cells allow the simultaneous study of the NF-κB pathway, by monitoring the activity of SEAP, and the interferon regulatory factor (IRF) pathway, by assessing the activity of Lucia luciferase. Both reporter proteins are readily measurable in the cell culture supernatant when using QUANTI-Blue™, a SEAP detection reagent, and QUANTI-Luc™, a Lucia luciferase detection reagent.
(§3) Distinct variants of human STING (hSTING) that affect CDN recognition and signal transduction have been identified: • R232 (R71-G230-R232-R293): the most prevalent in the human population (˜60%). Referred as the “wild-type” or 232R-RGR allele2. • HAQ (H71-A230-R232-Q293): contains three non-synonymous single nucleotide substitutions; R71H, G230A and R293Q. This allele, found in ˜20% of the population, is less sensitive to CDNs than the “wild-type” allele2.
(§4) Growth Medium: RPMI 1640, 2 mM L-glutamine, 25 mM HEPES, 10% heat-inactivated fetal bovine serum (30 min at 56° C.), 100 μg/mL Normocin™, Pen-Strep (100 U/mL-100 μg/mL)
(§5) 1. After cells have recovered (after at least one passage), maintain and subculture the cells in growth medium. (To maintain selection pressure, add 10 μg/mL of blasticidin and 100 μg/mL of Zeocin™ to the growth medium every other passage.) 2. Pass the cells every 3 days by inoculating 7×10^5 cells/ml.
(§6) Experimental Procedure • 1. Add 180 μL of cell suspension (˜100,000 cells) per well of a flat-bottom 96-well plate (costar 3599). • 2. Then compounds were added with serial dilutions over 10 points with a 1 nM-10 μM final concentration range in 0.10% DMSO/growth medium. • 3. Incubate the plate for 24 h at 37° C., 5% CO2. • 4. Set the BMG PHERAstar FSX instrument with the following parameters: 50 μL of injection, end-point measurement with a 4 second start time and 0.1 second reading time. • 5. Pipet 10 μL of THP1-Dual™ cell culture medium per well into a 96-well white opaque plate (Corning 3903). • 6. Add 50 μL of QUANTI-Luc assay solution to each well and gently tap the plate several times to mix. Proceed immediately with the measurement.

In test [1] the test system is hSTING-R232 in THP1-Dual KI-hSTING-R232 Cells. Kind of test: STING cellular assay in THP1-Dual KI-hSTING-R232 cells (Lucia luciferase IRF reporter). Type of test: cell-based. The note with it: Homo sapiens, 24 h incubation, QUANTI-Luc readout, 1 nM-10 μM.
Description: as §1, §2, §3, §4, §5, §6

Take `CCn1nc(C)cc1-c1nc(O)c2c3cc(C(N)=O)cc(OC)c3n(C/C=C/Cn3c4nc(-c5cc(C)nn5CC)nc(O)c4c4cc(C(N)=O)cc(OCCCN5CCOCC5)c43)c2n1` [Example 2, (E)-9-(4-(6-carbamoyl-2-(1-ethyl-3-methyl-1H-pyrazol-5-yl)-4-hydroxy-8-(3-morpholinopropoxy)-9H-pyrimido[4,5-b]indol-9-yl)but-2-en-1-yl)-2-(1-ethyl-3-methyl-1H-pyrazol-5-yl)-4-hydroxy-8-methoxy-9H-pyrimido[4,5-b]indole-6-carboxamide; trifluoroacetic acid]: the EC50 in the test with STING in THP1-Dual Cells is greater than 10000 nM; in test [1], 3230 nM.

For `CCn1nc(C)cc1-c1nc(Cl)c2c3cc(C(N)=O)cc(OC)c3n(C/C=C/Cn3c4nc(-c5cc(C)nn5CC)nc(Cl)c4c4cc(C(N)=O)cc(OCCCN5CCOCC5)c43)c2n1` [Example 3, (E)-9-(4-(6-carbamoyl-4-chloro-2-(1-ethyl-3-methyl-1H-pyrazol-5-yl)-8-(3-morpholinopropoxy)-9H-pyrimido[4,5-b]indol-9-yl)but-2-en-1-yl)-4-chloro-2-(1-ethyl-3-methyl-1H-pyrazol-5-yl)-8-methoxy-9H-pyrimido[4,5-b]indole-6-carboxamide; trifluoroacetic acid], the concentration giving a half-maximal response (EC50) with STING in THP1-Dual Cells came to 182 nM; in test [1], 3.7 nM.

On to `CCn1nc(C)cc1-c1ncc2c3cc(C(N)=O)cc(OC)c3n(C/C=C/Cn3c4nc(-c5cc(C)nn5CC)ncc4c4cc(C(N)=O)cc(OCCCN5CCOCC5)c43)c2n1` [Example 4, (E)-9-(4-(6-carbamoyl-2-(1-ethyl-3-methyl-1H-pyrazol-5-yl)-8-(3-morpholinopropoxy)-9H-pyrimido[4,5-b]indol-9-yl)but-2-en-1-yl)-2-(1-ethyl-3-methyl-1H-pyrazol-5-yl)-8-methoxy-9H-pyrimido[4,5-b]indole-6-carboxamide; formic acid], for which the EC50 in the test on STING in THP1-Dual Cells was 3.5 nM; in test [1], 1.5 nM.

Regarding `CCn1nc(C)cc1-c1nc(Cl)c2c3cc(C(N)=O)cc(OC)c3n(C/C=C/Cn3c4nc(-c5cc(C)nn5CC)nc(Cl)c4c4cc(C#N)cc(OCCCN5CCOCC5)c43)c2n1` [Example 1, (E)-4-chloro-9-(4-(4-chloro-6-cyano-2-(1-ethyl-3-methyl-1H-pyrazol-5-yl)-8-(3-morpholinopropoxy)-9H-pyrimido[4,5-b]indol-9-yl)but-2-en-1-yl)-2-(1-ethyl-3-methyl-1H-pyrazol-5-yl)-8-methoxy-9H-pyrimido[4,5-b]indole-6-carboxamide], the EC50 (in the test on STING in THP1-Dual Cells; in test [1]) was greater than 10000 nM in each case.

The EC50 is the midpoint of the concentration-response curve.
